According to patent US20070015737A1, “Compounds for inhibiting diseases and preparing cells for transplantation” (Neurochem (International) Limited, priority 1999, published 2007):
Several values for one entry are separate records, joined by “and”; a condition that tells them apart may be missing. Equal values may be shown once.

Assays:
IAPP [1] = target: T1, IAPP (Homo sapiens, UniProt P10997); assay: Rate of amyloid fibril formation by Thioflavine T spectroscopy (Example 1); assay type: biochemical; conditions: Thioflavine T fluorescence
T1 sequence (P10997 34-70 limits assumed): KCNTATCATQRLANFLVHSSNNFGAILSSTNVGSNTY
Description: Determination of the Rate of Amyloid Fibril Formation by Thioflavine T Spectroscopy
Detection of ThT fluorescence can be used as a sensitive assay for amyloid fibril formation under different conditions. This assay has been used in experiments to determine the effects of compounds of the invention on amyloid fibril formation.
Human IAPP was dissolved in 40% trifluoroethanol and freeze-dried into conveniently-sized aliquots. IAPP was prepared immediately before the measurements by dissolving in 40% 1,1,1,3,3,3-hexafluoro-2-propanol (HFIP) in water to maintain the peptide in alpha helical conformation and soluble. A stock solution of ThT (2.5 mM) was prepared, 7.9 mg in 10 mL Tris-HCl pH 7.0 and filtered (0.22 μm). Solutions were kept in the dark until use. Fluorescence was examined at 440 nm excitation (slit 5 nm), and emission at 482 nm (slit 10 nm) with stirring. […] of ThT stock (final concentration 62.5 μM) was added to peptide sample and made up to 1 mL in the cuvette. The sample was stirred for 5 min. before taking a reading. Measurements were made at an initial time point (5 min. from sample preparation), at intervals over the next 4-6 h and after overnight incubation at room temperature.

IAPP [2] = target: T1, IAPP; assay: Circular dichroism analysis of β-sheet conformation (Example 2); assay type: biochemical; set-up: add 10 μL of 10 mg/mL IAPP stock solution (final 100 μg peptide); conditions: changes in ellipticity at 218 nm (β-sheet conformation); peptide:compound 1:10
Description: Circular dichroism analysis was conducted to confirm the activity of certain therapeutic compounds in preventing or inhibiting IAPP-associated fibril formation in accordance with the present disclosure by determining the presence or absence of β-sheet conformation.
The assay, a co-incubation procedure, examines the ability of a compound or substance to inhibit the assembly of amyloid fibrils, e.g., to test for the presence of the amyloidotic b-sheet conformation in the presence of soluble IAPP. Samples are run in the presence and absence (i.e., water alone) of buffering agent, which is done to determine if competitive effects are seen with the ionic buffer (usually phosphate).
Add components used at a molar ratio of 1:10 [peptide:compound]; add 10 μL of 10 mg/mL IAPP stock solution (final 100 μg peptide) to the aqueous solution containing compound to a final volume of 400 μl. The pH of the final assay solution is measured to ensure there is no fluctuation and the spectrum is accumulated using the parameters as shown above.
Add desired amount of compound to achieve a 1:10 molar ratio in 10 mM phosphate buffer, pH 7. Add 10 μL of 10 mg/mL IAPP stock solution (final peptide 100 μg) to the phosphate buffered solution containing the compound and bring to a final volume of 400 μL. The pH of the final assay solution is measured to ensure there is no fluctuation and the spectrum is accumulated using the parameters as shown above.
In both assays, a control sample is run with each test group. This control contains peptide only in water or buffer at a similar final volume of 400 μl. Spectra for the control are collected initially (first run) and at the end of the test (final run) to ensure that the peptide has not undergone extensive aggregation during the course of the assay. Spectra for the controls are used to compare with the measurements obtained with the treated samples.
Make fresh 1 mg/mL stock solution of IAPP in 10 mM phosphate buffer, pH 7. Add desired amount of compound to achieve a 1:10 molar ratio in 10 mM phosphate buffer, pH 7. Incubate for 3 days at room temperature. Make up to final volume of 400 μL with 10 mM phosphate buffer, pH 7. The pH of the final assay solution is measured to ensure there is no fluctuation and the spectrum is accumulated using the parameters as shown above. A similar control is run for comparative purposes.
Plots of the spectra (control and treated) are individually assembled and the changes in ellipticity at 218 nm are examined. This minimum is directly correlated with the amount of peptide in β-sheet conformation present in the sample. Changes in either a positive or negative direction are noted and a relative value (“active” or “not active”) assigned to the compound as a measure of activity.

Human IAPP (hIAPP) = target: T2, Human IAPP (hIAPP) (Homo sapiens, UniProt P10997); assay: ELISA assay for quantitative determination of fibril formation (Example 4); assay type: biochemical; conditions: for proportion of non-fibrillar IAPP in the supernatant: IAPP 20 μM, inhibitor:IAPP molar ratio 10:1, compared to control
T2 construct: Human IAPP (hIAPP) was synthesised by solid state synthesis (Advanced Biotechnologies, UK); purchased Advanced Biotechnologies, UK; host or cells: chemical solid-phase synthesis
T2 sequence (P10997 34-70 limits assumed): T1 sequence (P10997 34-70 limits assumed)
Description: ELISA Assay for Quantitative Determination of Fibril Formation
Human IAPP (hIAPP) was synthesised by solid state synthesis (Advanced Biotechnologies, UK). Human IAPP forms fibrils immediately in aqueous media. Aliquots of IAPP in water (800 μg/ml) were stored frozen at −20° C. until use. These samples contain small numbers of fibrils visible with electron microscopy (em).
Two sets of samples containing IAPP (20 μM) with or without inhibitors (at a molar ratio of 10:1 with IAPP, (20 μM)) were prepared on day 1 in Tris buffer. One set was centrifuged, the supernatant removed and frozen immediately at −20° C. (Time zero time point). The other set was incubated overnight at room temp with shaking (time 24 h time point). On day 2 these samples were spun and supernatant removed to determine the proportion of non-fibrillar IAPP.
To assay IAPP in the supernatant both sets of samples were serially diluted in bicarbonate coating buffer, added to ELISA wells and incubated overnight. Plates were washed in phosphate buffer containing Tween (PBS/Tw)×3. Diluted antiserum raised against human IAPP was incubated on the plate for 90 minutes at 37° C. Following washing in PBS/Tw, alkaline phosphatase conjugated anti-rabbit antisera was incubated for 90 mins. Following washing in PBS/Tw, alkaline phosphate substrate was added and colour allowed to develop for 30 mins. Optical density was read at 405 nm.
Data from all samples was calculated to determine changes of IAPP concentration in the supernatant induced by the candidate substance immediately (i.e. at time zero) or after 24 h incubation. Data in FIG. 1 is expressed as the proportion of non-fibrillar IAPP in the supernatant of test samples compared to control at both time points.

IAPP [3] = target: T1, IAPP; assay: Circular dichroic spectroscopy (Example 6); assay type: biochemical
Description: Circular Dichroic Spectroscopy
Human IAPP was prepared in 100% HFIP at 1 mg/ml filtered through a 0.31 μm filter, freeze dried in aliquots, resuspended in 20% HFIP and water, and filtered before analysis. The circular dichroic spectroscopy was performed in the same manner as described in Hubbard et al (1991) Biochem J, 275, 785-8. Samples were analysed immediately and after 24 h incubation with candidate substances i, iii, iv and x. […] After 24 h incubation the molecular conformation of IAPP (CNTL) was converted to β-conformation. […] This is prevented by the candidate compounds.

[4] = test system: amyloid in transgenic islets cells expressing human IAPP; assay: Electron micrograph analysis of amyloid in cultured transgenic islets; assay type: cell-based, mouse
Source text: These are used as a test system for determining the toxicity and effect of putative amyloid inhibitors in short term culture systems. Whereas normal mice can be used to determine toxicity of compounds added to the media, amyloid fibrils form only in murine islets isolated from transgenic mice expressing the gene for human IAPP (transgene incorporation was confirmed by PCR). These islets are isolated in a similar way to that of human islets and are handpicked from the digest and cultured in 16.7 mM glucose as above. Amyloid fibrils formed within 4 days of culture and can be quantified by quantitative electron microscopy. […] The cells were cultured for 6 days in 11.1 mM glucose and RPMI.
Transgenic islets cells were cultured as described above, for 7 days and the media changed every two days. At the end of the culture period the islets were fixed in 2.5% glutaraldehyde in 0.1M sodium phosphate buffer (pH 7.2) for one hour and post-fixed in 1% osmium tetroxide, and embedded in Spurr's resin (Taab Laboratories, Reading, UK) or contrast enhanced in 2% Uranyl Acetate, dehydrated in methanol and embedded in LRGold (Taab, as previous). Ultrathin sections of the islets were mounted on formvar coated nickel grids. Amyloid was identified by immunogold labelling of tissue sections with an antisera raised to human IAPP 1-37, human IAPP 17-37, rat IAPP 1-37 and goat anti-rabbit gold conjugate (10 nm diameter) either from Biocell, Cardiff, UK or Sigma or by use of protein A gold. Grids were examined in a JOEL electron microscrope at an excitation voltage of 80 kV.
Images of 3 islet sections at a low magnification were prepared. A montage of each islet was made from electron micrographs and the areas of both intra and extra cellular amyloid identified and marked. The total islet area, together with the area of intra and extra cellular amyloid was then calculated using image analysis (Kontron Image Processor). 3 separate islets were examined for each condition.

[5] = after 24 h incubation, IAPP alone converted to β-conformation
[6] = Average of 3 islets, 7 days culture
[7] = individual islets 1-3, 7 days culture

Row | Activity (IAPP [2]) | SMILES | IAPP-associated fibril assembly (IAPP [1]) | proportion of non-fibrillar IAPP in the supernatant (Human IAPP (hIAPP)) | also measured
1 |  | c1ccc2c(c1)CCNC2 [1,2,3,4-tetrahydroisoquinoline] | inhibit or prevent IAPP-associated fibril assembly |  | 
2 | Active | O=S(=O)(O)CCCNCCCO [3-(3-hydroxy-1-propyl)amino-1-propanesulfonic acid] | inhibit or prevent IAPP-associated fibril assembly |  | 
3 | Active | NCC(O)CS(=O)(=O)O (stereo not shown) [3-amino-2-hydroxy-1-propanesulfonic acid] | inhibit or prevent IAPP-associated fibril assembly |  | 
4 | Active | CN(C)CCCS(=O)(=O)O [3-dimethylamino-1-propanesulfonic acid] | inhibit or prevent IAPP-associated fibril assembly |  | 
5 |  | COc1ccc(S(=O)(=O)O)c2cccnc12 [8-methoxyquinoline-5-sulfonic acid] | inhibit or prevent IAPP-associated fibril assembly |  | 
6 |  | O=S(=O)(O)NC1CCCCC1 [cyclohexylsulfamic acid] | inhibit or prevent IAPP-associated fibril assembly |  | 
7 |  | O=S(=O)(O)CCCNCCCO [i, 3-(3-hydroxy-1-propyl)amino-1-propanesulfonic acid] |  | increase the proportion of non-fibrillar IAPP in the supernatant | molecular conformation of IAPP (CD spectra) (IAPP [3]; [5]): remained in α-conformation; molecular conformation of IAPP (CD spectra) (IAPP [3]; time zero): typical CD spectra for α-conformation
8 | Active | O=S(=O)(O)NC1CCCCC1 [iv, Cyclohexylsulfamic acid] |  | increase the proportion of non-fibrillar IAPP in the supernatant | molecular conformation of IAPP (CD spectra) (IAPP [3]; [5]): remained in α-conformation; molecular conformation of IAPP (CD spectra) (IAPP [3]; time zero): typical CD spectra for α-conformation
9 |  | NCC(O)CS(=O)(=O)O (stereo not shown) [ix, 3-amino-2-hydroxy-1-propanesulfonic acid] |  | increase the proportion of non-fibrillar IAPP in the supernatant | 
10 | Active | N[C@@H](COP(=O)(O)O)C(=O)O [v, O-Phospho-L-serine] | inhibit or prevent IAPP-associated fibril assembly | increase the proportion of non-fibrillar IAPP in the supernatant | 
11 | Active | COc1ccc(S(=O)(=O)O)c2cccnc12 [vii, 8-methoxyquinoline-5-sulfonic acid] |  | increase the proportion of non-fibrillar IAPP in the supernatant | Extra amyloid % of total [4, 6]: 1.6%; Extra amyloid area [4, 6]: 86.8 μm^2; Extra amyloid % of total [4, 7]: 1.9% and 0.5% and 3.4%; Extra amyloid area [4, 7]: 98.73 μm^2 and 37.9 μm^2 and 123.99 μm^2
12 |  | CN(C)CCCS(=O)(=O)O [x, 3-dimethylamino-1-propanesulfonic acid] |  | increase the proportion of non-fibrillar IAPP in the supernatant | time point at which the increase of non-fibrillar IAPP was greater (Human IAPP (hIAPP); time zero versus time 24 h): greater at time zero; molecular conformation of IAPP (CD spectra) (IAPP [3]; [5]): remained in α-conformation; molecular conformation of IAPP (CD spectra) (IAPP [3]; time zero): typical CD spectra for α-conformation

Row | SMILES | Activity (IAPP [2]) | IAPP-associated fibril assembly (IAPP [1]) | proportion of non-fibrillar IAPP in the supernatant (Human IAPP (hIAPP)) | also measured
13 | c1ccc2c(c1)CCNC2 [iii, 1,2,3,4-tetrahydroisoquinoline] | Active |  | increase the proportion of non-fibrillar IAPP in the supernatant | molecular conformation of IAPP (CD spectra) (IAPP [3]; [5]): remained in α-conformation; molecular conformation of IAPP (CD spectra) (IAPP [3]; time zero): typical CD spectra for α-conformation
14 | O=S(=O)(O)CCCN1CC=C(c2ccccc2)CC1 [viii, 4-phenyl-1-(3′ sulfopropyl)-1,2,3,6-tetrahydropyridine] | Active | inhibit or prevent IAPP-associated fibril assembly | increase the proportion of non-fibrillar IAPP in the supernatant | 
